Measured values from US20180296456A1, “Decapeptide-12 Modulation of Sirtuin Gene Expression in Epidermal Keratinocyte Progenitors” (Escape Therapeutics, Inc., priority 2017, published 2018).
Several values for one entry are separate records, joined by “and”; a condition that tells them apart may be missing. Equal values may be shown once. Ends that are not written are not given here.

Tests used:
[1] = MTT cell proliferation assay, fibroblasts; format: cell-based, human; details: human, MTT, 72 h, read-out: fibroblast proliferation rate after 72 hours
How it was run: (§1)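 Human fibroblasts and melanoblasts were seeded at 2.5×10^4/well at 37 degrees Celsius, 5 percent CO2. Proliferation was read by MTT kit per manufacturer's protocol.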

[2] = test system: SIRT5; assay: SIRT5 transcription, semi-quantitative RT-PCR in human epidermal progenitors; format: cell-based; details: 72 h
How it was run: (§2)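 Epidermal progenitors (human, neonatal); Epilife + 60 μM CaCl2; 37 °C/5 percent CO2. Decapeptide 10, 30, 50, 100, 300 μM × 72 h, 0.05 percent DMSO final. Oligo-dT cDNA from 2 μg RNA; PCR 34 cycles, 54 °C extension; ethidium gel, ratio to 18S.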

[3] = MTT cell proliferation assay, melanoblasts; format: cell-based, human; details: human, MTT, 72 h, read-out: melanoblast proliferation rate after 72 hours
How it was run: as §1

[4] = Trypan blue cell viability, 7 days, fibroblasts; format: cell-based; details: human, relative to control, read-out: fibroblast viability after 7 days
Description: (§3) The effect of each of the decapeptides upon cell viability was also tested. In particular, cells were incubated with the decapeptide at various concentrations and then counted for viability relative to the control (untreated cells) using trypan blue. Cytotoxicity was measured according to the following formula:
(§4) [1−(# of cells in control−# of live cells in test sample)/# of cells in control]×100 percent.

[5] = Trypan blue cell viability, 7 days, melanoblasts; format: cell-based; details: human, relative to control, read-out: melanoblast viability after 7 days
Description: as §3, §4

[6] = test system: SIRT6; assay: SIRT6 transcription, semi-quantitative RT-PCR in human epidermal progenitors; format: cell-based; details: 72 h
How it was run: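 Following a 72 hour treatment, cells were trypsinized and RNA isolated with an RNeasy kit. cDNA was made from 2 μg RNA using oligo dT and TaqMan reagents, then SIRT6 and 18S were amplified for 34 cycles. Products ran on 1.5 percent agarose gels with ethidium bromide; densitometry gave SIRT6/18S intensity ratios compared against vehicle-treated controls.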

[7] = test system: SIRT1; assay: SIRT1 transcription, semi-quantitative RT-PCR in human epidermal progenitors; format: cell-based; details: 72 h
How it was run: as §2

[8] = test system: SIRT4; assay: SIRT4 transcription, semi-quantitative RT-PCR in human epidermal progenitors; format: cell-based; details: 72 h
[9] = test system: SIRT3; assay: SIRT3 transcription, semi-quantitative RT-PCR in human epidermal progenitors; format: cell-based; details: 72 h
How it was run: as §2

[10] = test system: SIRT7; assay: SIRT7 transcription, semi-quantitative RT-PCR in human epidermal progenitors; format: cell-based; details: 72 h
How it was run: as §2

Sequence: YRSRKYSSWY [decapeptide-12, YRSRKYSSWY]
- viability at 72 h, 3 µM ([1]; 3 μM): 100%
- viability at 72 h, 10 µM ([1]; 10 μM): 99 ± 1%
- viability at 72 h, 30 µM ([1]; 30 μM): 99 ± 1%
- viability at 72 h, 50 µM ([1]; 50 μM): 98 ± 1%
- viability at 72 h, 100 µM ([1]; 100 μM): 97 ± 1%
- viability at 72 h, 300 µM ([1]; 300 μM): 97 ± 1%
- viability at 72 h, 500 µM ([1]; 500 μM): 97 ± 2%
- viability at 72 h, 1000 µM ([1]; 1000 μM): 96 ± 2%
- SIRT5 transcription increase relative to control ([2]; 3 μM): 3 ± 1%
- SIRT5 transcription increase relative to control ([2]; 10 μM): 5.2 ± 3%^
- SIRT5 transcription increase relative to control ([2]; 10 μM, listed as P4): 5 ± 3%
- SIRT5 transcription increase relative to control ([2]; 30 μM): 21 ± 6.7%
- SIRT5 transcription increase relative to control ([2]; 30 μM, listed as P4): 21 ± 7%
- SIRT5 transcription increase relative to control ([2]; 50 μM): 33.1 ± 6.1%
- SIRT5 transcription increase relative to control ([2]; 50 μM, listed as P4): 33 ± 6%
- SIRT5 transcription increase relative to control ([2]; 100 μM, listed as Deca): 46 ± 7.3%
- SIRT5 transcription increase relative to control ([2]; 100 μM, listed as P4): 46 ± 7%
- SIRT5 transcription increase relative to control ([2]; 300 μM): 67 ± 9.3%
- SIRT5 transcription increase relative to control ([2]; 300 μM, listed as P4): 67 ± 9%
- SIRT5 transcription increase relative to control ([2]; 500 μM): 87.4 ± 15.1%
- SIRT5 transcription increase relative to control ([2]; 1000 μM): 92.1 ± 16.8%
- viability at 72 h, 3 µM ([3]; 3 μM): 100%
- viability at 72 h, 10 µM ([3]; 10 μM): 100%
- viability at 72 h, 30 µM ([3]; 30 μM): 99 ± 1%
- viability at 72 h, 50 µM ([3]; 50 μM): 98 ± 1%
- viability at 72 h, 100 µM ([3]; 100 μM): 97 ± 1%
- viability at 72 h, 300 µM ([3]; 300 μM): 97 ± 1%
- viability at 72 h, 500 µM ([3]; 500 μM): 95 ± 2%
- viability at 72 h, 1000 µM ([3]; 1000 μM): 95 ± 2%
- viability at 168 h, 3 µM ([4]; 3 μM): 100%
- viability at 168 h, 10 µM ([4]; 10 μM): 98.6 ± 1%
- viability at 168 h, 30 µM ([4]; 30 μM): 98.2 ± 1%
- viability at 168 h, 50 µM ([4]; 50 μM): 97.8 ± 1%
- viability at 168 h, 100 µM ([4]; 100 μM): 97.2 ± 1%
- viability at 168 h, 300 µM ([4]; 300 μM): 95.6 ± 2%
- viability at 168 h, 500 µM ([4]; 500 μM): 94.5 ± 2%
- viability at 168 h, 1000 µM ([4]; 1000 μM): 93.8 ± 1%
- viability at 168 h, 3 µM ([5]; 3 μM): 100%
- viability at 168 h, 10 µM ([5]; 10 μM): 99 ± 1%
- viability at 168 h, 30 µM ([5]; 30 μM): 98.3 ± 1%
- viability at 168 h, 50 µM ([5]; 50 μM): 98 ± 1%
- viability at 168 h, 100 µM ([5]; 100 μM): 97.3 ± 1%
- viability at 168 h, 300 µM ([5]; 300 μM): 95.2 ± 2%
- viability at 168 h, 500 µM ([5]; 500 μM): 94.6 ± 2%
- viability at 168 h, 1000 µM ([5]; 1000 μM): 94 ± 2%
- SIRT6 transcription increase relative to control ([6]; 3 μM): 3 ± 1%
- SIRT6 transcription increase relative to control ([6]; 10 μM): 21.3 ± 8.1%
- SIRT6 transcription increase relative to control ([6]; 10 μM, listed as P4): 21 ± 8%
- SIRT6 transcription increase relative to control ([6]; 30 μM): 52 ± 5.1%
- SIRT6 transcription increase relative to control ([6]; 30 μM, listed as P4): 52 ± 5%
- SIRT6 transcription increase relative to control ([6]; 50 μM): 95.4 ± 13.4%
- SIRT6 transcription increase relative to control ([6]; 50 μM, listed as P4): 95 ± 13%
- SIRT6 transcription increase relative to control ([6]; 100 μM): 147±8% and 147%
- SIRT6 transcription increase relative to control ([6]; 100 μM, listed as Deca): 147 ± 8.4%
- SIRT6 transcription increase relative to control ([6]; 100 μM, listed as P4): 147 ± 8%
- SIRT6 transcription increase relative to control ([6]; 300 μM): 189 ± 9.5%
- SIRT6 transcription increase relative to control ([6]; 300 μM, listed as P4): 189 ± 10%
- SIRT6 transcription increase relative to control ([6]; 500 μM): 194 ± 14%
- SIRT6 transcription increase relative to control ([6]; 1000 μM): 167 ± 12.2%
- SIRT1 transcription increase relative to control ([7]; 3 μM): 3 ± 1%
- SIRT1 transcription increase relative to control ([7]; 10 μM): 12.2 ± 3.1%^
- SIRT1 transcription increase relative to control ([7]; 10 μM, listed as P4): 12 ± 3%
- SIRT1 transcription increase relative to control ([7]; 30 μM): 34 ± 6.7%
- SIRT1 transcription increase relative to control ([7]; 30 μM, listed as P4): 34 ± 7%
- SIRT1 transcription increase relative to control ([7]; 50 μM): 79.2 ± 12%
- SIRT1 transcription increase relative to control ([7]; 50 μM, listed as P4): 79 ± 12%
- SIRT1 transcription increase relative to control ([7]; 100 μM): 141±11% and 141%
- SIRT1 transcription increase relative to control ([7]; 100 μM, listed as Deca): 141.2 ± 11%
- SIRT1 transcription increase relative to control ([7]; 100 μM, listed as P4): 141 ± 11%
- SIRT1 transcription increase relative to control ([7]; 300 μM): 188 ± 12%^
- SIRT1 transcription increase relative to control ([7]; 300 μM, listed as P4): 188 ± 12%
- SIRT1 transcription increase relative to control ([7]; 500 μM): 205 ± 13.3%
- SIRT1 transcription increase relative to control ([7]; 1000 μM): 213%
- SIRT1 transcription increase relative to control ([7]; 1000 μM, listed as Deca): 213 ± 13.4%
- SIRT4 transcription increase relative to control ([8]; 3 μM): 3 ± 1%
- SIRT4 transcription increase relative to control ([8]; 10 μM): 8.1 ± 4%^
- SIRT4 transcription increase relative to control ([8]; 10 μM, listed as P4): 8 ± 3%
- SIRT4 transcription increase relative to control ([8]; 30 μM): 12.1 ± 7%
- SIRT4 transcription increase relative to control ([8]; 30 μM, listed as P4): 12 ± 7%
- SIRT4 transcription increase relative to control ([8]; 50 μM): 41.2 ± 13.1%
- SIRT4 transcription increase relative to control ([8]; 50 μM, listed as P4): 41 ± 13%
- SIRT4 transcription increase relative to control ([8]; 100 μM, listed as Deca): 71.4 ± 14.1%
- SIRT4 transcription increase relative to control ([8]; 100 μM, listed as P4): 71 ± 14%
- SIRT4 transcription increase relative to control ([8]; 300 μM): 115 ± 11.7%
- SIRT4 transcription increase relative to control ([8]; 300 μM, listed as P4): 115 ± 12%
- SIRT4 transcription increase relative to control ([8]; 500 μM): 145 ± 12.7%
- SIRT4 transcription increase relative to control ([8]; 1000 μM): 151 ± 13.4%
- SIRT3 transcription increase relative to control ([9]; 3 μM): 4 ± 1%
- SIRT3 transcription increase relative to control ([9]; 10 μM): 9.2 ± 2.8%
- SIRT3 transcription increase relative to control ([9]; 10 μM, listed as P4): 9 ± 3%
- SIRT3 transcription increase relative to control ([9]; 30 μM): 32.2 ± 6.1%
- SIRT3 transcription increase relative to control ([9]; 30 μM, listed as P4): 32 ± 6%
- SIRT3 transcription increase relative to control ([9]; 50 μM): 65 ± 12.1%
- SIRT3 transcription increase relative to control ([9]; 50 μM, listed as P4): 65 ± 12%
- SIRT3 transcription increase relative to control ([9]; 100 μM): 121±13%
- SIRT3 transcription increase relative to control ([9]; 100 μM, listed as Deca): 121 ± 13.2%
- SIRT3 transcription increase relative to control ([9]; 100 μM, listed as P4): 121 ± 13%
- SIRT3 transcription increase relative to control ([9]; 100 μM, listed as decapeptide): 121%
- SIRT3 transcription increase relative to control ([9]; 300 μM): 165.2 ± 12.4%
- SIRT3 transcription increase relative to control ([9]; 300 μM, listed as P4): 165 ± 12%
- SIRT3 transcription increase relative to control ([9]; 500 μM): 177 ± 9.2%
- SIRT3 transcription increase relative to control ([9]; 1000 μM): 171 ± 9%
- SIRT7 transcription increase relative to control ([10]; 3 μM): 5 ± 1%
- SIRT7 transcription increase relative to control ([10]; 10 μM): 15 ± 4.2%
- SIRT7 transcription increase relative to control ([10]; 10 μM, listed as P4): 15 ± 4%
- SIRT7 transcription increase relative to control ([10]; 30 μM): 34.4 ± 9.2%
- SIRT7 transcription increase relative to control ([10]; 30 μM, listed as P4): 34 ± 9%
- SIRT7 transcription increase relative to control ([10]; 50 μM): 61.3 ± 10.2%
- SIRT7 transcription increase relative to control ([10]; 50 μM, listed as P4): 61 ± 10%
- SIRT7 transcription increase relative to control ([10]; 100 μM): 95.4±14% and 95±14%
- SIRT7 transcription increase relative to control ([10]; 100 μM, listed as Deca): 95.4 ± 14.2%
- SIRT7 transcription increase relative to control ([10]; 100 μM, listed as P4): 95 ± 14%
- SIRT7 transcription increase relative to control ([10]; 300 μM): 148 ± 9.6%
- SIRT7 transcription increase relative to control ([10]; 300 μM, listed as P4): 148 ± 10%
- SIRT7 transcription increase relative to control ([10]; 500 μM): 171.4 ± 8.4%
- SIRT7 transcription increase relative to control ([10]; 1000 μM): 181.1 ± 8.4%
